Source: patent US11524975B2, “Amphiphilic compound having dendronic hydrophobic group and application thereof” (Industry-University Cooperation Foundation Hanyang …, priority 2017, dated 2022)
Read-outs that look alike come from different tables or passages of the source.

Experiments:
LHI-RC complex = system: T1, LHI-RC complex; experiment: Structural stability of LHI-RC complex in detergent, UV-Vis absorbance at 875 nm; set-up: species or system R. capsulatus; conditions: 25° C., FIG. 5
T1 construct: His tag (implied only by Ni-NTA / HisSpinTrap purification); made in house; host or cells: R. capsulatus U43 [pUHTM86Bgl] membranes
Protocol: An experiment was conducted to evaluate the stabilization ability of DTMs on LHI-RC. The photosynthetic super assembly consists of a complex of light-harvesting complex I (LHI) and a reaction center (RC). The structural stability of LHI-RC was measured by a method of monitoring the structure of a protein for 20 days using UV-Vis spectroscopy. LHI-RC protein stability according to the concentration of an amphiphilic molecule was investigated using all DTMs of the present invention, and conventional amphiphilic molecules, such as DDM and OG, and the concentrations of an amphiphilic molecule used here were CMC+ 0.04 wt % (FIG. 5a) and CMC+ 0.2 wt % (FIG. 5b).
Specifically, LHI-RC stability was measured using a method disclosed in the paper published in 2008 by the inventors (P. S. Chae et al., ChemBioChem 2008, 9, 1706-1709.). […] A 10 mL aliquot of the solution of the frozen R. capsulatus membrane was homogenized using a glass homogenizer, and incubated with gentle stirring at 32° C. for 30 minutes. The homogenized membrane was treated with 1.0 wt % DDM for 30 minutes at 32° C. […] Protein stability was measured at regular intervals during the incubation by measuring UV-Vis spectra of the samples in the range of 650 to 950 nm. Protein integrity was evaluated by monitoring absorbance (A875) at 875 nm.

β2AR-Gs complex [1] = biological target: T2, β2AR-Gs complex (Homo sapiens, UniProt P07550); conditions: DDM-purified complex, previous study; cited from earlier work
T2 construct: made in house; host or cells: β2AR: Sf9 insect cells

MelBSt and MelBEc = experiment: Galactoside-binding Trp→D2G FRET assay of detergent-solubilized MelB homologs; type: biochemical; conditions: 1.0% detergent, 60 minutes at 23° C., FIG. 8c
Protocol: In addition, RSO vesicles were prepared to be used for Trp→D^2G FRET assay. The RSO membrane vesicles were prepared by osmotic lysis from E. coli DW2 cells containing MelBSt or MelBEc. The RSO membrane vesicles mixed in a buffer (pH 7.5) containing 100 mM KPi and 100 mM NaCl at a protein concentration of 1 mg/ml were treated with 1.0% individual compounds (DDM, DTM-A5 and DTM-A6) for 60 minutes at 23° C., and ultracentrifuged using a TLA 120.2 rotor at 300,000 g or more for 45 minutes at 4° C. Supernatants were applied to a FRET (Trp→D^2G) experiment using an Amico-Bowman Series 2 (AB2) spectrofluorometer. The 2′-(N-dansyl)aminoalkyl-1-thio-β-D-galactopyranoside (D^2G, dansyl-galactoside) was obtained from Drs. Gerard Leblanc and H. Ronald Kaback. D^2G FRET signals of MelBSt and MelBEc were collected at 490 and 465 nm, respectively, upon excitation of Trp residues at 290 nm. 10 μM D^2G and excess melibiose or an equal amount of water (control) was added into an MelB solution at the time points of 1 minute and 2 minutes, respectively.

[2] = Critical micelle concentration by hydrophobic fluorescence staining with diphenylhexatriene (DPH); type: physicochemical
Protocol: A method of measuring CMC is not particularly limited, and may be a method widely known in the art, for example, fluorescent staining using diphenylhexatriene (DPH).
(§1) To identify the properties of DTMs synthesized according to the synthetic methods of Examples 1 and 2, the molecular weights (M.W.) and critical micellar concentrations (CMCs) of DTMs, and hydrodynamic radii (Rh) of formed micelles were measured.
(§2) Specifically, the CMCs were measured using hydrophobic fluorescence staining and diphenylhexatriene (DPH), and the hydrodynamic radii (Rh) of the micelles formed by each formulation were measured by dynamic light scattering (DLS).

β2AR = biological target: T3, β2AR (Homo sapiens, UniProt P07550); experiment: β2AR stability in detergent, [3H]-dihydroalprenolol (DHA) binding; type: biochemical; conditions: CMC+0.2 wt %, 4 days at room temperature, FIG. 9a
T3 construct: made in house; host or cells: Sf9 insect cells, baculovirus
Protocol: A receptor was expressed in Sf9 insect cells infected with a baculovirus and solubilized in 1% DDM. The DDM-solubilized receptor was purified by alprenolol-sepharose in the presence of 0.01% cholesteryl succinate (CHS). β2AR purified by DDM was diluted with a buffer containing DDM or DTM (DTM-A6, DTM-A7 or DTM-E7) to reach the final concentration of CMC+0.2 wt %. β2AR solubilized in each compound was stored for 4 days at room temperature, and the ligand binding ability of the receptor was measured at regular intervals by incubating the receptor with 10 nM radioactive [^3H]-dihydroalprenolol (DHA) for 30 minutes at room temperature. The mixture was loaded into a G-50 column, and a supernatant was collected using a certain amount of binding buffer (supplemented with 20 mM HEPES pH 7.5, 100 mM NaCl, 0.5 mg/ml BSA). In addition, a 15 ml scintillation fluid was added. Receptor-binding [^3H]-DHA was measured using a scintillation counter (Beckman).

[3] = Hydrodynamic radius of micelles by dynamic light scattering (DLS); type: physicochemical; conditions: 0.5 wt % detergent concentration
Protocol: A method of measuring the radius of a micelle is not particularly limited, but may be a method well known in the art, for example, dynamic light scattering (DLS).
as §1, §2

β2AR-Gs complex [4] = biological target: T2, β2AR-Gs complex; conditions: DDM-purified complex, previous study; cited from earlier work; remark: listed apart in the source
[5] = biological target: T4, MelBSt (melibiose permease) (Salmonella typhimurium, UniProt P30878); conditions: 1.5 wt % detergent, 90 minutes
T4 construct: made in house; host or cells: E. coli DW2 (ΔmelB, ΔlacZY), plasmid pK95ΔAHB/WT MelBSt/CH10
Protocol: Specifically, Salmonella typhimurium MelBSt (melibiose permease) having a 10-His tag at the C-terminus was expressed in E. coli DW2 cells (ΔmelB and ΔlacZY) using a pK95ΔAHB/WT MelBSt/CH10 plasmid. Cell growth and membrane preparation were carried out according to the methods disclosed in the paper written by A. S. Ethayathulla et al. (Nat. Commun. 2014, 5, 3009). A protein assay was performed using a Micro BCA kit (Thermo Scientific, Rockford, Ill.). MelBSt stability in DTMs or DDM was evaluated using the protocol disclosed in Nat. Methods 2010, 7, 1003-1008, written by P. S. Chae et al. A MelBSt-containing membrane sample (the final protein concentration was 10 mg/mL) was incubated in a solubilization buffer containing 1.5% (w/v) DDM or DTM (20 mM sodium phosphate, pH 7.5, 200 mM NaCl, 10% glycerol and 20 mM melibiose) at four different temperatures (0, 45, 55 and 65° C.) for 90 minutes. To remove an insoluble material, ultracentrifugation was performed using a Beckman Optima™ MAX ultracentrifuge equipped with a TLA-100 rotor at 355,590 g and 4° C. for 45 minutes. […] The loaded samples were analyzed by SDS-15% PAGE, and then visualized by immunoblotting with a Penta-His-HRP antibody (Qiagen, Germantown, Md.).

β2AR-Gs complex [6] = biological target: T2, β2AR-Gs complex; experiment: Stability of β2AR-Gs complex by analytical gel filtration (SEC); conditions: complex purified in detergent, compound-free running buffer, 3 and 15-day incubation, FIG. 9b
Protocol: 100 μM β2AR solubilized in 0.1% DDM was mixed with 120 μM Gs heterotrimer for 30 minutes at room temperature. 0.5 unit of apyrase (NEB) and 2 mM MgCl2 was added to facilitate complex formation, followed by further incubation for one hour. Subsequently, 1% DTM-A6 was added such that the final concentration reached 0.8%, and the sample was further incubated for 30 minutes to change DDM to DTM-A6. The protein solution was loaded into a M1 Flag column, washed with a series of buffers with different molar ratios of 0.1% DDM buffer to 0.5% DTM-A6 buffer to completely change DDM to DTM-A6, and the protein was finally eluted with 0.05% (70×CMC) DTM-A6 buffer. Preparative gel filtration was performed to purify the β2AR-Gs complex with a running buffer (20 mM HEPES pH 7.5, 100 mM NaCl, 0.005% DTM-A6, 1 mM BI, […]). To measure the stability of the β2AR-Gs complex in DTM-A6, analytical gel filtrations were performed using the running buffer as above, but after 3 and 15-day incubation, performed without DTM-A6 (compound-free condition).

β2AR-Gs complex [7] = biological target: T2, β2AR-Gs complex; experiment: Negative stain EM analysis of β2AR-Gs complex; conditions: FIG. 11
Protocol: A β2AR-Gs protein complex was prepared for electron microscopy using a conventional negative staining protocol, and imaged at room temperature using a Tecnai T12 electron microscope operated at 120 kV according to a low-dose procedure. Images were recorded at a magnification of 71,138× and a defocus value of approximately ˜1.1 μm on a Gatan US4000 CCD camera. All images were binned (2×2 pixels) to obtain a pixel size of 4.16 Å at a specimen level. Particles were manually […] using e2boxer (part of the EMAN2 software suite). 2D reference-free alignment and classification of particle projections were performed using ISAC. 124,279 projections of β2AR-Gs were subjected to ISAC producing 131 classes consistent in two-way matching and 10,000 particle projections.

[8] = DPH fluorescence staining, aqueous solution

Structure (SMILES)	LHI-RC protein stability when concentration increases from CMC+0.04 wt % to CMC+0.2 wt % (LHI-RC complex)	integrity of β2AR-Gs complex (β2AR-Gs complex [1])	maintenance of MelB protein function (galactoside binding) of two homologs (MelBSt and MelBEc)	CMC [2]	CMC [2, 8]	CMC (wt %) [2, 8]	long-term β2AR receptor activity (β2AR)	R2 (nm), detergent hydrodynamic radius [3]	homogeneity of β2AR-Gs complex particles (negative stain EM) (β2AR-Gs complex [4])	MelBst solubilization from the membrane ([5]; 0° C. and 45° C.)	MelBst protein extraction efficiency ([5]; 0° C.)	MelBst solubilization from the membrane ([5]; 65° C.)	integrity of β2AR-Gs complex (SEC) (β2AR-Gs complex [6])	homogeneity of β2AR-Gs complex particles (negative stain EM) (β2AR-Gs complex [7])	MelBst solubilization from the membrane ([5]; 55° C.)
CCCCCCCCO[C@@H]1O[C@H](CO)[C@@H](O)[C@H](O)[C@H]1O [OG, n-octyl-β-D-glucopyranoside]	protein stability decreases	–	–	–	–	–	–	–	–	–	–	–	–	–	–
CCCCCCCCCCCCO[C@@H]1O[C@H](CO)[C@@H](O[C@H]2O[C@H](CO)[C@@H](O)[C@H](O)[C@H]2O)[C@H](O)[C@H]1O [DDM, n-dodecyl-β-D-maltopyranoside]	protein stability decreases	significant dissociation between the receptor and Gs protein even after 2 day-incubation	only one of the two homologs	170 µM	170 µM	0.0087 wt %	rapid loss of activity over time	3.4 ± 0.0 nm	aggregation of particles	stably solubilized	higher protein extraction efficiency than DTMs	did not occur	–	–	–
CCCCCCC(CCCCCC)COCC(COCC(CCCCCC)CCCCCC)COCC(CO[C@@H]1OC(CO)[C@@H](O[C@H]2OC(CO)[C@@H](O)C(O)C2O)C(O)C1O)(CO[C@@H]1OC(CO)[C@@H](O[C@H]2OC(CO)[C@@H](O)C(O)C2O)C(O)C1O)CO[C@@H]1OC(CO)[C@H](O[C@H]2OC(CO)[C@@H](O)C(O)C2O)C(O)C1O (stereo partly drawn) [DTM-A6]	–	–	maintain protein function	–	~10 µM	~0.0015 wt %	consistently maintained	3.7 ± 0.0 nm	–	–	–	–	continuously maintains its integrity as a complex for 15 days	highly homogeneous	most effectively solubilized
